A word on the pIC50: it is the IC50 on a negative log10 scale, so that one unit is a factor of ten. A high value points to a low IC50.

pIC50: −log10 of the molar value.

Experiment [1] has as its system adult female mosquitoes (A. aegypti). Description: Mosquito excretion experiments (excretory capacity). The experiment is classed as in vivo, Aedes aegypti. The note with it: 1 h after injection, mean ±SEM. How it is done:
The Aedes aegypti mosquito colony used in the present study is identical to that described previously. As before, only adult female mosquitoes 3–10 days post emergence were utilized for experiments.
The excretory capacity of mosquitoes was measured as described. In brief, after anesthetizing mosquitoes on ice, their hemolymph was injected as described above with 900 nL of a K^+-PBS vehicle containing 1.15% DMSO, 0.077% β-cyclodextrin, and 0.008% Solutol, or the vehicle containing VU625 (0.77 mM) to deliver a dose of 690 pmol of VU625 per mosquito. In experiments where probenecid was used, the vehicle was supplemented with water- soluble probenecid […] to deliver a dose of 3.4 nmol of probenecid per mosquito. After injection, the mosquitoes were placed immediately in a graduated, packed-cell volume tube (MidSci, St. Louis, MO; 5 mosquitoes per tube) and held at 28°C. The volume of urine excreted at 60 min post injection was measured as described previously, and all mosquitoes were confirmed to be alive at the end of 60 min period. For each treatment, 6–18 independent trials of 5 mosquitoes per treatment were performed.
Prism (GraphPad Software) was used to generate a dose-response curve for the toxicity of VU625; the doses (x-axis) were first log transformed and then the mortality data was normalized using Prism, where the smallest value and largest values in a data set equal ‘0%’ and ‘100%’, respectively. The data were then fitted using a ‘biphasic’ algorithm (<100 constraint) to calculate potencies (ED25 and ED75 values). To compare 1) the toxic effects among the vehicle, probenecid, VU625, and VU625 + probenecid treatments, and 2) the excretory capacity among the vehicle, probenecid, VU625, and VU625 + probenecid treatments, one-way ANOVAs were performed with Newman-Keuls posttests.

The target of another experiment is T1, adenosine A1 receptor (Homo sapiens, UniProt P30542).
T1 sequence (P30542 1-326): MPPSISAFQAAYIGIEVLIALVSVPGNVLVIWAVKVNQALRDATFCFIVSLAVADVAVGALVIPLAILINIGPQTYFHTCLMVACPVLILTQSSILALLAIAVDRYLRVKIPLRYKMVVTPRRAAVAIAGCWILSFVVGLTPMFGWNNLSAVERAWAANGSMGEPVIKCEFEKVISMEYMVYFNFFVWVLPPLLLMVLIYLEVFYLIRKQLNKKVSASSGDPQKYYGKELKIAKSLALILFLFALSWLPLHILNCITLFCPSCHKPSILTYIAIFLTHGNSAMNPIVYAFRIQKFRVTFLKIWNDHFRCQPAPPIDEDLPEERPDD
The experiment in a line: Radioligand displacement assay, adenosine A1 receptor. The experiment is classed as binding, mammalian. The settings on record: 10 µM VU625.

The target in a further experiment is AeKir1 (Aedes aegypti, UniProt L0EQS9). Description: Whole-cell patch clamp electrophysiology of T-REx-HEK293-AeKir1 cells. Format: cell-based. How it is done: T-REx-HEK293-AeKir1 cells were voltage clamped in the whole-cell configuration of the patch clamp technique after overnight induction with tetracycline (1 µg/ml) essentially as described earlier. Briefly, patch electrodes were pulled from silanized 1.5 mm outer diameter borosilicate microhematocrit tubes using a Narishige PC-10 two-stage puller. Electrode resistance ranged from 3.5 to 5.5 MΩ when filled with the following intracellular solution (in mM): 135 KCl, 2 MgCl2, 1 EGTA, 10 HEPES free acid, 2 Na2ATP (Roche, Indianapolis, IN), pH 7.3, 275 mOsm. The standard bath solution contained (in mM): 135 NaCl, 5 KCl, 2 CaCl2, 1 MgCl2, 5 glucose, 10 HEPES free acid, pH 7.4, 290 mOsm. Whole-cell currents were recorded under voltage-clamp conditions using an Axopatch 200B amplifier (Molecular Devices, Sunnyvale, CA). Electrical connections to the amplifier were made using Ag/AgCl wires and 3 M KCl/agar bridges. Electrophysiological data were collected at 5 kHz and filtered at 1 kHz. Data acquisition and analysis were performed using pClamp 9.2 software (Axon Instruments). All recordings were made at room temperature (20–23°C).
AeKir1, sequence (L0EQS9 entry or part of it): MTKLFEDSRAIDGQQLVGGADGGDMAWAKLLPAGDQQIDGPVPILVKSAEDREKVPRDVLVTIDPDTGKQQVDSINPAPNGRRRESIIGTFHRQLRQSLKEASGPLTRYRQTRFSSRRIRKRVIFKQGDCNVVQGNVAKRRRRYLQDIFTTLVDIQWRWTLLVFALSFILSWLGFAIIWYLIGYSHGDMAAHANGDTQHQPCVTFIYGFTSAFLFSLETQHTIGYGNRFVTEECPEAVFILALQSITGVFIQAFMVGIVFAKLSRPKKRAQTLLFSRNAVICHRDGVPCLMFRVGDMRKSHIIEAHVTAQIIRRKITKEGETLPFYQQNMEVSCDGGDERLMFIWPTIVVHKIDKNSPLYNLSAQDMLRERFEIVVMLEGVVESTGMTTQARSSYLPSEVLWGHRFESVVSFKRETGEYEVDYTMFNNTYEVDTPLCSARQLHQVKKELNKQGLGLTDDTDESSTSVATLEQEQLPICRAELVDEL

For the compound `CCC(=O)N1c2ccc(S(=O)(=O)Nc3cccc(OC)c3)cc2CC1C` (centres unmarked) [VU625, N-(3-methoxyphenyl)-2-methyl-1-propionylindoline-5-sulfonamide], the “excretory capacity (urine excreted)” value is given as 236.7±24.53 nL/female in experiment [1] (VU625 690 pmol + probenecid 3.4 nmol per mosquito in 900 nL vehicle) and 583.3±29.52 nL/female in experiment [1] (VU625 690 pmol per mosquito in 900 nL vehicle). At adenosine A1 receptor, this compound displayed a radioligand displacement of 76%. For the same compound, the “Hill coefficient (nH)” value on AeKir1 (95% CI: 0.8–1.3) was 1.02. This compound gave a pIC50 against AeKir1 (T-REx-HEK293 cells, 95% CI: 75.4–124.2 nM, n = 4–6) of 7.01.

Source of the values: paper PMC4222822, “Discovery and Characterization of a Potent and Selective Inhibitor of Aedes aegypti Inward Rectifier Potassium Channels” (PLoS ONE, 2014).
